This passage reports melting point results from a melting point compilation (Tetko et al.; mined from patent text by program, amines drawn as free bases though some values may be those of a salt).

One may read the melting point as the temperature of the solid-liquid transition.

`COc1ccc(C(Sc2cc(Oc3ccccc3)ccc2N)C(O)C(=O)O)cc1Cl` (stereo not drawn) returned a melting point of 168 to 170 °C. The same measure for `O=C(NCC1CC2C=CC1C2)NS(=O)(=O)C=Cc1ccccc1` (stereo not drawn): 161 to 164 °C; for `COc1cc(-n2cccn2)ccc1-n1cc(OC)c(=O)c(-c2ccnn2-c2cccc(Cl)c2)n1`: 167 to 168 °C. Compound `CN(Cc1cc2c(=O)c(C(=O)NCc3ccc(Cl)cc3)cn(C)c2s1)CC(O)c1cccnc1` (single isomer, unassigned; (+)) registered a melting point of 132 to 135 °C. `CCOc1cc2c(cc1OCC)[C@@H]1CN(C)CC[C@@H]1N=C2c1ccc(NS(=O)(=O)c2ccc(C)cc2)cc1` yielded a melting point of 267 to 268 °C. Compound `Cc1ccsc1-n1ncc(-c2ccc(S(C)(=O)=O)cc2)c(-c2ccc(F)cc2)c1=O` had a melting point of 215 to 217 °C. Under `O=C1c2ccccc2C(=O)N1c1cccc(CBr)n1` stands 169 to 170 °C; under `O=C(O)c1ccc(CCc2n[nH]c3c2c(=O)n(-c2ccccc2)c2ncccc32)cc1`, 318 to 320 °C. The same measure for `O=C(NC(Cc1ccccc1)C(=O)O)c1ccc(-c2ccc(OCc3ccccc3)cc2)cc1` (stereo not drawn): 302 °C; for `CC(C)c1ccn2nc(SCc3ccccc3)nc2n1`: 65 to 66 °C; for `CC(C)(C)C(O)(Cn1cncn1)C1CCCCC1` (stereo not drawn): 100 to 102 °C. Under `Cc1cccc2c(-c3ccc(F)cc3)onc12` stands 134 to 136 °C; under `COc1cc(Nc2c(C#N)cnc3c(Br)csc23)c(Cl)cc1Cl`, 265 to 266 °C; under `CCc1c(S(=O)(=O)c2ccc(O)cc2)cnn1C`, 188 to 190 °C. Regarding `COc1cnc(CSc2nc3cc(OCC(F)(F)F)ccc3[nH]2)cc1OC`, the melting point is 55 to 57 °C. The same measure for `CCCc1ccc(OCC(C)O)c2c(=O)cc(C(=O)O)oc12` (stereo not drawn): 134 to 136 °C; for `COC(=O)CCCC#Cc1cc(Cl)ccc1NS(=O)(=O)c1cc(C)cc(C)c1`: 92 to 94 °C. In turn, `CC(C)(C)NCC(O)CN1C(=O)NC(Cc2c[nH]c3ccccc23)C1=O` (stereo not drawn) yielded a melting point of 190 to 191 °C. Compound `COc1ccc2c(C(C)C(=O)OCCNC(=O)c3cccnc3)cccc2c1` (single isomer, unassigned; (+)) gave a melting point of 79 to 82 °C. Under `COCC(=O)Nc1ccc2ncnc(Nc3cccc(Br)c3)c2c1` stands 190 to 191 °C; under `CC(=O)N1CCN(Cc2cnc(-c3cc4c(Cl)ccc(N(C)S(=O)(=O)c5cccs5)c4[nH]3)s2)CC1`, 224 to 225 °C; under `CC(C)Oc1cccc(CC(=O)N2CCCC(CCN3CCC(C(=O)c4nc5ccccc5n4Cc4ccc(F)cc4)CC3)(c3ccc(Cl)c(Cl)c3)C2)c1` (stereo not drawn), 70 to 73 °C. Under `Cc1c(-c2ccncc2)[nH]c2c1C(=O)CCC2` stands 248 to 249 °C; under `Cn1cc(-c2cccc(F)c2)c(C(=O)NCCNC(=O)OC(C)(C)C)n1`, 124 °C; under `C#CCNC1CCc2ccccc21` (stereo not drawn), 39 to 41 °C. Turning to `O=C(Oc1ccc(Oc2ccccc2)cc1)N1CCC(OC(=O)N2CCC(OC(=O)N3CCC4(CCCC4)CC3)CC2)CC1`, the melting point is 48 to 63 °C.

Consider `CCCCC(=O)NCCC(=O)O`, for which the melting point was in the range of 73 to 76 °C. As to `CC(=O)Oc1c(C)cc(NC(=O)Nc2c(-c3ccccc3C)c3cc(Cl)c(C)cc3oc2=O)cc1C`, the melting point lay in the range of 240 to 242 °C. The same measure for `O=c1c(CCl)csc2ccc3ccccc3c12`: 151 to 153 °C. Under `Nc1sc2c(c1C(=O)c1ccsc1)CCC2` stands 125 to 127 °C; under `CC(C)(C#N)c1cc(C=O)cc(C(C)(C)C#N)c1`, 145 to 147 °C; under `CCCCOC(=O)c1cc(Cl)ccc1N`, 37 to 39 °C. As for `CC(CCCO[Si](C)(C)C(C)(C)C)C1CCC2C3=CC=C4C(C)(C)C(O[Si](C)(C)C(C)(C)C)CCC4(C)C3CCC21C` (stereo not drawn), the melting point is 98 to 106 °C. Under `CN1Cc2c(C(N)=S)ncn2-c2cccc(Cl)c2C1=O` stands 300 to 302 °C; under `O=C(CC1CCCC1=O)c1ccc(Br)cc1` (stereo not drawn), 59 to 61 °C; under `O=C(O)CCCCCc1nn(-c2ccc(F)cc2)c2c1CCCC2`, 95 to 96 °C. The same measure for `COc1cc(N2CCC(N3CCN(C)CC3)CC2)ccc1Nc1ncc2cc3ccccc3n2n1`: 176 to 179 °C; for `O=S(=O)(O)c1cccc(Cl)n1`: 274 to 275 °C. `COc1cc2[nH]c(C(=O)O)cc2cc1F` registered a melting point of 239 to 240 °C. The same measure for `ClCCNc1ccnc2cc(Cl)ccc12`: 239 to 240 °C; for `COc1nc(Cl)nc(NC(C#N)C#N)n1`: 164 to 166 °C; for `NC(=S)Nc1ccccc1C1CC1`: 152 to 154 °C. The same measure for `CCCn1c(=O)sc2cc(F)c(-n3c(=O)cc(CC)[nH]c3=O)cc21`: greater than 250 °C; for `O=C1CCCN1C(=O)c1cccnc1`: 98 to 100 °C. Under `CN(C)C(c1ccccc1Cl)C1CCCCC1(O)c1ccc2ccccc2c1` (stereo not drawn) stands greater than 230 °C; under `CS(=O)(=O)c1ccc(-c2cc(S(C)(=O)=O)nn2-c2ccc(F)cc2)cc1`, 209 to 210 °C; under `C#CCn1cc(CO)c(C(F)(F)F)c1`, 45 °C. Compound `CCOC(=O)C(NC=O)C(=O)Nc1ccc(Br)cc1C` (stereo not drawn) displayed a melting point of 174 to 176 °C. The same measure for `O=C1C(c2ccccc2)OC(=S)N1Nc1ccccc1` (stereo not drawn): 140 to 141 °C; for `COc1cc(-c2ncn(C)c2-c2ccc3c(c2)NCCO3)cc(OC)c1OC`: 160 to 162 °C. Under `CN(C)Cc1ccccc1Oc1cccc(CC(=O)O)c1` stands 205 to 208 °C.

Turning to `CCCn1c(=O)c2c(NC)n[nH]c2n(CCOCc2ccccc2)c1=O`, the melting point was in the range of 224 to 226 °C.

With `OC1(C#Cc2cccc(Cl)c2)CCNC1` (stereo not drawn), the melting point fell in the range of 153 to 160 °C. Under `COCCc1ccc(OCC(O)CNC(C)COc2ccc(O)c(C(N)=O)c2)cc1` (stereo not drawn) stands 139 to 142 °C; under `COc1nc(F)cc2nc(SCc3ccccc3)nn12`, 121 to 122 °C. Under `Cc1nc2c(OCc3c(Cl)ccc(NC(C)C)c3Cl)cccn2c1Br` stands 133 to 134 °C. Under `CCCCCc1nc2ccc(C(=O)O)cc2c(=O)o1` stands 185 to 190 °C. With `O=C(O)Cc1cccc(C(=O)c2cc3ccsc3s2)c1`, the melting point came out at 121 °C. Under `O=C(OCc1ccccc1[N+](=O)[O-])C(F)(F)C(F)(F)C(F)(F)C(F)(F)C(F)(F)C(F)(F)C(F)(F)F` stands 34 to 35 °C. The same measure for `NC(=O)N1C(=O)C(C(=O)c2ccccc2)c2nc(Cl)ccc21` (stereo not drawn): 220 °C; for `CSc1c(O)ccc2[nH]ncc12`: 126 to 128 °C. Compound `CCCNC(=S)NS(=O)(=O)c1cc2c(cc1OC)OCCC2CNC(=O)c1cc(Cl)ccc1OC` (stereo not drawn) showed a melting point of 183 to 184 °C. Under `CCN1CCc2ccc(Nc3ncc(C(F)(F)F)c(Nc4ccc(N5CCOCC5)cc4OC)n3)cc2CC1` stands 167 to 170 °C; under `O=C1OC(=O)c2c(Cl)c(Sc3ccccc3)c(Sc3ccccc3)c(Cl)c21`, 204 to 207 °C.

`OC(CCN1CCN(c2ccc(F)cc2)CC1)COc1ccccc1` (stereo not drawn) had a melting point of 97 to 99 °C. The same measure for `NC(=O)COc1ccc(-c2n[nH]c3c2Cc2ccccc2-3)cc1`: 247 to 248 °C. The same measure for `CCCCCCCCc1sc(NC(=O)C2(C)Cc3cc(C)ccc3N2Cc2cccc(C(=O)OC)c2)nc1-c1cc(OC)c(Cl)cc1OC` (stereo not drawn): 165 to 166 °C.

Regarding `Nc1cc(CO)ccc1Sc1nccnc1Cl`, the melting point was in the range of 148 to 150 °C. Under `COc1cc(OC)c(C(=O)N(C)OC)cc1Cl` stands 97 to 99 °C; under `CCOCCOc1ccc(C(C)C)c(NC(=O)CN2CCN(CCCSc3nc4ccccc4o3)CC2)c1C(C)C`, 99 to 100 °C; under `CCOC(=O)CN(C)C(=O)CC1=C(n2nc(-c3c(-c4ccccc4)nn4ccccc34)ccc2=O)CCCC1`, 56 to 60 °C. The same measure for `CN1C(=O)[C@H](NC(=O)/C=C/c2ccc([N+](=O)[O-])cc2)N=C(c2ccccc2)c2ccccc21`: 165 to 166 °C. Under `COC(=O)Cc1ccccc1SCc1cccc(OC)c1` stands 87 to 89 °C; under `Clc1nc(C2=NCCN2)[nH]c1Cl`, 260 °C; under `CN1CCCC1=NC(=O)Nc1ccc(OCc2ccccc2)c(Cl)c1`, 115 to 117 °C. In turn, `COc1nc(-c2ccc(Cl)cc2)nc(Cl)c1Cl` returned a melting point of 157 to 159 °C.

Consider `Cc1c(-c2ccccc2)noc1-c1ccccc1C(=O)O`, for which the melting point was 159 to 161 °C. As for `S=c1nc2c(-c3ccccc3)cccn2c(=S)n1-c1ncccc1-c1ccccc1`, the melting point lay in the range of 90 to 92 °C. `CCCCc1nc(C(F)(F)C(F)(F)F)c(CO)n1Cc1ccc(-c2ccccc2C(=O)O)cc1` gave a melting point of 190 to 191 °C. The same measure for `COc1ccc(N(Cc2cnn(Cc3ccc(F)cc3)c2)C(=O)C2CCCc3c(O)cccc32)cc1` (stereo not drawn): 143 to 146 °C.

Compound `COC(=O)c1ccc(-c2n[nH]c(C)n2)cc1Cl` registered a melting point of 196 to 198 °C. Under `CC(=O)SC(CC(=O)c1ccc(Oc2ccc(Cl)cc2)cc1)C(=O)O` (stereo not drawn) stands 91 to 94 °C; under `COCc1c(C#CBr)ncc2[nH]c3cccc(OCc4ccccc4)c3c12`, 160 °C.

Compound `COc1ccc2cc(-c3cnc(Cc4ccccc4)o3)ccc2c1` came in with a melting point of 122 to 124 °C. Compound `COC(=O)c1cc(Cl)c(N=C2NCCN2C(C)=O)c(Cl)c1` registered a melting point of 188 to 189 °C.

`OC1C2=C(CCN(CCCCc3c[nH]c4ccccc34)C2)c2ccccc21` (stereo not drawn) displayed a melting point of 205 to 208 °C.

Regarding `S=c1n(-c2ccc(Cl)cc2Cl)nc2n1CCCC2`, the melting point lay in the range of 118 to 120 °C.

In the case of `COC(=O)c1cc(Nc2ccc(C)cc2)c(Nc2ccc(C)cc2)cc1C(=O)OC`, the melting point lay within 170 to 172 °C.
